According to US20210188775A1, “CARBOXAMIDE AND SULFONAMIDE DERIVATIVES USEFUL AS TEAD MODULATORS” (Genentech, Inc., priority 2018, published 2021):

Experiments:
Assay type in all cases: binding
TEAD4 = TEAD4 (Homo sapiens, UniProt Q15561); assay: Lipid HTRF TEAD4
TEAD1 = TEAD1 (Homo sapiens, UniProt P28347); assay: Lipid HTRF TEAD1
TEAD2 [1] = molecular target: T1, TEAD2 (Homo sapiens, UniProt Q15562); assay: Lipid HTRF TEAD2
TEAD3 [2] = molecular target: T2, TEAD3 (Homo sapiens, UniProt Q99594); assay: Lipid HTRF TEAD3
TEAD2 [3] = molecular target: T1, TEAD2; assay: TEAD lipid assay (Lipid FP, Bodipy-C16 probe displacement); details: fluorescence polarization, His-tagged TEAD, 60 minutes incubation
Method: (§1) A TEAD lipid assay was done according to the following method. His-tagged TEAD proteins were pre-incubated with a Bodipy-C16 FP probe (Life Technologies Cat #D3821) for 30 minutes at room temperature to pre-form TEAD-probe complex. […] Duplicate 10 point dose response curves were generated for each test compound. The potency of compounds as TEAD lipid pocket binders was determined by IC50 value generated using a non-linear 4 parameter curve fit.

TEAD3 [4] = molecular target: T2, TEAD3; assay: as above; details: fluorescence polarization, His-tagged TEAD, 60 minutes incubation
Method: as §1

T2 sequence (Q99594 whole entry, species assumed): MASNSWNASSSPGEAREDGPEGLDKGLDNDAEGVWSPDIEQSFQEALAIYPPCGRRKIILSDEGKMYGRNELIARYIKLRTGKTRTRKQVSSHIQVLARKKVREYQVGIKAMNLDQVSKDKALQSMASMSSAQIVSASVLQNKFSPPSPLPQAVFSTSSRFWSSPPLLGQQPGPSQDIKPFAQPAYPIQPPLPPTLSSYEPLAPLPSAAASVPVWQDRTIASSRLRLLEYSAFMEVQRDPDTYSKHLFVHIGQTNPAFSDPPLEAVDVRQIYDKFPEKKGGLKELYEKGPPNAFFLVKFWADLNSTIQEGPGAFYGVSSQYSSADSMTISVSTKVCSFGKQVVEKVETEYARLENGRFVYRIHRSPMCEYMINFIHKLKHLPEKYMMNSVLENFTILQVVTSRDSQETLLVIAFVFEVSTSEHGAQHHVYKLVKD
T1 sequence (Q15562 whole entry, species assumed): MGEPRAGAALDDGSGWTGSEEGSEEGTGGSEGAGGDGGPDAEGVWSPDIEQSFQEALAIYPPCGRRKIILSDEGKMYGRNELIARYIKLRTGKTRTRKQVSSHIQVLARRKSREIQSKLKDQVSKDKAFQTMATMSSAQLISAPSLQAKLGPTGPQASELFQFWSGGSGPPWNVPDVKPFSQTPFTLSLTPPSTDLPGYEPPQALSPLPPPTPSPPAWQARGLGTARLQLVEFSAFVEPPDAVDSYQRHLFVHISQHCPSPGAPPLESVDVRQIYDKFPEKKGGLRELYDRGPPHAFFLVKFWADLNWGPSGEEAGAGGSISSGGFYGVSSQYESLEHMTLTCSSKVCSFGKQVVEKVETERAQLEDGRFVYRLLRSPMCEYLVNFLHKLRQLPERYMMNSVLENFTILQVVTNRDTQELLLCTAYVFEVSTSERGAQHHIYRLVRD
Chain of TEAD4 (Q15561 whole entry, species assumed): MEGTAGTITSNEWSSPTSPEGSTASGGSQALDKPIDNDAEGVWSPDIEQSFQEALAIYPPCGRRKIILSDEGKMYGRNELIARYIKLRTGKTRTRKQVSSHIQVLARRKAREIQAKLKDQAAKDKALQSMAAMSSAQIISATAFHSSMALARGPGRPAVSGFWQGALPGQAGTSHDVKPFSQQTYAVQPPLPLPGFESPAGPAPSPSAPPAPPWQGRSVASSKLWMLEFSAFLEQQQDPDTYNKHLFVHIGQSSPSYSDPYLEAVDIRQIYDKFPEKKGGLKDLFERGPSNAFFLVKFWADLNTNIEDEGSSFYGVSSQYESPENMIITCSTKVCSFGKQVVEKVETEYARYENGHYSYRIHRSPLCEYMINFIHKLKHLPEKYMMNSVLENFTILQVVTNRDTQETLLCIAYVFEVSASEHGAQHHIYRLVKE
Chain of TEAD1 (P28347 whole entry, species assumed): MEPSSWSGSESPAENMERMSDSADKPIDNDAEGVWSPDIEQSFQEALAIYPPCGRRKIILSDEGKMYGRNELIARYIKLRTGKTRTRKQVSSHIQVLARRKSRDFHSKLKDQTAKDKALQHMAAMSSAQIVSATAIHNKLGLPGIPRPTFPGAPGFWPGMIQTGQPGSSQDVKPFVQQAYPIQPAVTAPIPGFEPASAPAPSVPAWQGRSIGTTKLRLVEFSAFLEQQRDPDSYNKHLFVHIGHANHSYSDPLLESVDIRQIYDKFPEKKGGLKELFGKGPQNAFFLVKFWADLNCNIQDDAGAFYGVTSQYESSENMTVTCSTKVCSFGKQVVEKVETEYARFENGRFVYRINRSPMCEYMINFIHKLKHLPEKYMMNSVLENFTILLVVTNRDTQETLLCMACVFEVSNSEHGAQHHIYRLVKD

| Compound | IC50 (TEAD4) [µM] | IC50 (TEAD1) [µM] | IC50 (TEAD2 [1]) [µM] | IC50 (TEAD3 [2]) [µM] | IC50 (TEAD2 [3]) [µM] | IC50 (TEAD3 [4]) [µM] |
| --- | --- | --- | --- | --- | --- | --- |
| CNC(=O)Cc1cccc(CNC(=O)c2cc(/C=C/[C@H]3CC[C@@H](C(F)(F)F)CC3)c(OC)cn2)c1 [Compound 57A, 5-Methoxy-N-(3-(2-(methylamino)-2-oxoethyl)benzyl)-4-((E)-2-(cis-4-(trifluoromethyl)cyclohexyl)vinyl) picolinamide] | 0.131 | 0.389 | 0.046 | 0.867 |  |  |
| C=CS(=O)(=O)Nc1cnc(OC)c(/C=C/C2CCC(F)(F)CC2)c1 [Compound 58, N-[5-[(E)-2-(4,4-difluorocyclohexyl)vinyl]-6-methoxy-3-pyridyl]ethenesulfonamide] | 0.008 | 0.034 | 0.01 | 0.034 |  |  |
| COc1ccc(NS(=O)(=O)C2CC2)cc1/C=C/C1CCCCC1 [Compound 28, N-[3-[(E)-2-cyclohexylvinyl]-4-methoxy-phenyl]cyclopropanesulfonamide] |  |  |  |  | 0.89 | 1 |
| COc1ccc(NS(C)(=O)=O)cc1/C=C/C1CCCC1 [Compound 3, N-[3-[(E)-2-cyclopentylvinyl]-4-methoxy-phenyl]methanesulfonamide] |  |  |  |  | 0.58 | 1.8 |
| COc1cnc(NS(C)(=O)=O)cc1/C=C/C1CCC(C(F)(F)F)CC1 (centres unmarked) [Compound 48, (E)-N-(5-methoxy-4-(2-(4-(trifluoromethyl)cyclohexyl)vinyl)pyridin-2-yl)methanesulfonamide] |  |  |  |  | 1.1 | 1.6 |
| CCOc1ncc(NS(C)(=O)=O)cc1/C=C/C1CCC(F)(F)CC1 [Compound 18, N-[5-[(E)-2-(4,4-difluorocyclohexyl)vinyl]-6-ethoxy-3-pyridyl]methanesulfonamide] |  |  |  |  | 1.9 | 1.2 |
| COc1ncc(NS(C)(=O)=O)cc1/C=C/[C@H]1CC[C@H](C(F)(F)F)CC1 [Compound 16, N-[6-methoxy-5-[(E)-2-[4-(trifluoromethyl)cyclohexyl]vinyl]-3-pyridyl]methanesulfonamide] |  |  |  |  | 0.69 | 1.2 |
| COc1cnc(C(=O)NC[C@H](O)CO)cc1/C=C/C1CC2(CC2)C1 [Compound 43, (E)-N-(2,3-dihydroxypropyl)-5-methoxy-4-(2-(spiro[2.3]hexan-5-yl)vinyl)picolinamide] |  |  |  |  | 0.98 | 1.7 |

Continued, values first:

| IC50 (TEAD4) [µM] | IC50 (TEAD1) [µM] | IC50 (TEAD2 [1]) [µM] | IC50 (TEAD3 [2]) [µM] | IC50 (TEAD2 [3]) [µM] | IC50 (TEAD3 [4]) [µM] | Compound |
| --- | --- | --- | --- | --- | --- | --- |
| 0.039 | 0.193 | 0.031 | 2.09 |  |  | CNC(=O)Cc1cccc(CNC(=O)c2cnc(OC)c(/C=C/[C@H]3CC[C@H](C(F)(F)F)CC3)c2)c1 [Compound 56B, 6-methoxy-N-(3-(2-(methylamino)-2-oxoethyl)benzyl)-5-((E)-2-(trans-4-(trifluoromethyl)cyclohexyl)vinyl) nicotinamide] |
| 0.073 | 0.198 | 0.089 | 0.23 |  |  | CNC(=O)Cc1cccc(CNC(=O)c2cc(/C=C/C3CCC(F)(F)CC3)c(OC)cn2)c1 [Compound 55, (E)-4-(2-(4,4-Difluorocyclohexyl)vinyl)-5-methoxy-N-(3-(2-(methylamino)-2-oxoethyl)benzyl)picolinamide] |
| 0.019 | 0.128 | 0.017 | 0.298 |  |  | CNC(=O)Cc1cccc(CNC(=O)c2cc(/C=C/[C@H]3CC[C@H](C(F)(F)F)CC3)c(OC)cn2)c1 [Compound 57B, 5-methoxy-N-(3-(2-(methylamino)-2-oxoethyl)benzyl)-4-((E)-2-(trans-4-(trifluoromethyl)cyclohexyl)vinyl) picolinamide] |
| 0.355 | 0.708 | 0.079 | 15.2 |  |  | CNC(=O)Cc1cccc(CNC(=O)c2cnc(OC)c(/C=C/[C@H]3CC[C@@H](C(F)(F)F)CC3)c2)c1 [Compound 56A, 6-Methoxy-N-(3-(2-(methylamino)-2-oxoethyl)benzyl)-5-((E)-2-(cis-4-(trifluoromethyl)cyclohexyl)vinyl)nicotinamide] |
| 0.224 | 0.318 | 0.146 | 4 |  |  | CNC(=O)Cc1cccc(CNC(=O)c2cnc(OC)c(/C=C/C3CCC(F)(F)CC3)c2)c1 [Compound 54, (E)-5-(2-(4,4-difluorocyclohexyl)vinyl)-6-methoxy-N-(3-(2-(methylamino)-2-oxoethyl)benzyl)nicotinamide] |
|  |  |  |  | 0.96 | 1.2 | C=CS(=O)(=O)Nc1ccc(OC)c(/C=C/c2ccc(Cl)cc2)c1 [Compound 34, N-[3-[(E)-2-(4-chlorophenyl)vinyl]-4-methoxy-phenyl]ethenesulfonamide] |
|  |  |  |  | 1 | 1.1 | COc1ccc(C(=O)NC(C)C)cc1/C=C/C1CCCCC1 [Compound 29] |
|  |  |  |  | 0.72 | 0.62 | COc1ccc(C(=O)NC(C)C)cc1/C=C/Cc1ccccc1 [Compound 30, N-isopropyl-4-methoxy-3-[(E)-3-phenylprop-1-enyl]benzamide] |
|  |  |  |  | 0.61 | 1.4 | COc1ccc(C(N)=O)cc1/C=C/Cc1ccccc1 [Compound 32, 4-methoxy-3-[(E)-3-phenylprop-1-enyl]benzamide] |
|  |  |  |  | 1.8 | 1.1 | CC[C@H](CO)NC(=O)c1cc(/C=C/C2CCC(F)(F)CC2)c(OC)cn1 (racemic) [Compound 41, 5-methoxy-4-[rac-(E)-2-(4,4-difluorocyclohexyl)vinyl]-N-[rac-(1R)-1-(hydroxymethyl)propyl]pyridine-2-carboxamide] |
|  |  |  |  | 0.59 | 0.86 | COc1cc(F)c(NS(C)(=O)=O)cc1-c1ccc(C(C)C)cc1 [Compound 12, N-[2-fluoro-5-(4-isopropylphenyl)-4-methoxy-phenyl]methanesulfonamide] |
|  |  |  |  | 1.9 | 1.6 | COc1ncc(C(=O)NC(C)CCO)cc1/C=C/c1ccc(Cl)cc1 (single isomer, unassigned) [Compound 19, 5-[(E)-2-(4-chlorophenyl)vinyl]-N-(3-hydroxy-1-methyl-propyl)-6-methoxy-pyridine-3-carboxamide] |
|  |  |  |  | 0.38 | 1.2 | COc1ccc(NS(=O)(=O)C2CC2)cc1-c1ccc(C(C)C)cc1 [Compound 25, N-[3-(4-isopropylphenyl)-4-methoxy-phenyl]cyclopropanesulfonamide] |
